A word on the solubility: it is the dissolved amount per volume that the medium holds. A low value points to a poorly soluble substance.

Data set [1] can be described thus: Pharmacokinetic study of infusion of LDEE.HCl formulation in minipigs. The format is in vivo. Particulars: for concentration at 1 h: 1 hour after start of 16 h s.c. infusion of 1,142 mg LDEE; for concentration at 2 h: 2 hour after start of 16 h s.c. infusion of 1,142 mg LDEE; for concentration at 4 h: 4 hour after start of 16 h s.c. infusion of 1,142 mg LDEE; for concentration at 8 h: 8 hour after start of 16 h s.c. infusion of 1,142 mg LDEE; for concentration at 16 h: 16 hour after start of 16 h s.c. infusion of 1,142 mg LDEE. How it is done:
Citrate buffered LDEE.HCl solutions having a pH of 4.5-5.0 were infused into the neck/shoulder regions of juvenile minipigs weighing about 10 kgs. Two minipigs were treated. On each minipig, the solutions were simultaneously infused at two infusion sites, one on the left neck/shoulder and one on the right neck/shoulder. A total of 5.24 mL of solution containing 218 mg/mL LDEE was infused into each minipig over a period of 16 hours, delivering a total dose of 1,142 mg LDEE to each minipig. The dose was split equally between the two infusion sites, with each infusion site receiving 571 mg LDEE in 2.62 mL over 16 hours.
Blood samples were collected at times 0 (pre-dose), 30 minutes, and 1, 2, 4, 8 and 16 hours after the start of the infusion. Approximately 3 mL whole blood was collected from the jugular vein. The whole blood was collected into tubes containing K2 EDTA as the anticoagulant. Immediately after collection the samples were centrifuged for ˜15 minutes at ˜3000 RPM, at ˜4° C. Each plasma sample was then transferred to a plastic cryovial containing sodium metabisulfite and sodium fluoride as preservatives. After the samples were processed they were placed on dry ice until movement to storage at ˜−70 degrees Celsius. The samples were analyzed for LDEE using LC-MS.

The nature of data set [2]: Hydrolysis of LDEE salts to LD in aqueous solution, monitored by HPLC. The format is physicochemical.
The nature of data set [3]: Solubility of LD in citrate buffered LDEE.HCl solutions near pH 4.5. Particulars: for solubility: citrate buffered aqueous solution, 25 °C, thermodynamic from solid, solubility of LD, citrate buffered.
A further data set in a line: physchem. Particulars: 25 °C, pH 4.5, aqueous buffer, thermodynamic from solid, solubility of LD.
The conditions of data set [4]: 25° C., cited from earlier work.
Data set [5] in a line: Precipitation of LD from / clarity of LDEE solutions on holding.
Data set [6] can be described thus: Achievable concentration and density of concentrated LDEE salt solutions. To be noted: LDEE acetate in water/acetic acid, pH 4.7.
Data set [7] can be described thus: Estimated / projected shelf life and operational life (time to LD saturation). Particulars: about 2.65 M LDEE.HCl, constant pH 5.1, 23±2° C.
The test system of the next data set is juvenile minipigs. Put plainly: Subcutaneous infusion in minipigs, symptoms at infusion site. To be noted: s.c. two sites, 218 mg/mL, 1,142 mg LDEE over 16 hours. The format is in vivo, minipig. How it is done: Citrate buffered LDEE.HCl solutions having a pH of 4.5-5.0 were infused into the shoulders of juvenile minipigs weighing about 10 kgs.
Citrate buffered LDEE.HCl solutions having a pH of 4.5-5.0 were infused into the neck/shoulder regions of juvenile minipigs weighing about 10 kgs. Two minipigs were treated. On each minipig, the solutions were simultaneously infused at two infusion sites, one on the left neck/shoulder and one on the right neck/shoulder. […] The dose was split equally between the two infusion sites, with each infusion site receiving 571 mg LDEE in 2.62 mL over 16 hours.

The mark [8] stands for this setting: minipig, in vivo, sc, 1142 mg, plasma, read-out: LD Concentration, Minipig #1.
[9] abbreviates: minipig, in vivo, sc, 1142 mg, plasma, read-out: LD Concentration, Minipig #2.
Where [10] appears, read: plasma, Pre-dose, 16 h s.c. infusion of 1,142 mg LDEE.
Setting [11] is: minipig, plasma, sc, 1142 mg, plasma, read-out: LDEE Concentration, Minipig #1.
Setting [12] is: minipig, plasma, sc, 1142 mg, plasma, read-out: LDEE Concentration, Minipig #2.

≈ marks a conversion by molar mass, not a printed value. Read-outs that look alike come from different tables or passages of the source. Where only a bound is given, the exact number is not on record here.

Take `N[C@@H](Cc1ccc(O)c(O)c1)C(=O)O` [LD, levodopa]: the concentration at 30 min was 716 ng/mL in data set [1] (minipig, in vivo, sc, 1142 mg, plasma, 30 minutes after start of 16 h s.c. infusion of 1,142 mg LDEE, read-out: LD Concentration, Minipig #1); 1180 ng/mL in data set [1] (minipig, in vivo, sc, 1142 mg, plasma, 30 minutes after start of 16 h s.c. infusion of 1,142 mg LDEE, read-out: LD Concentration, Minipig #2); greater than 700 ng/mL in [1] (minipig, plasma, subcutaneous, 114.2 mg/kg, minipigs, LDEE 114.2 mg/kg s.c. over 16 hours, read-out: circulating plasma LD concentration achieved within 30 minutes of initiation of infusion). For the same compound, the concentration at 1 h in data set [1] (setting [8]) turned out to be 694 ng/mL; in data set [1] (setting [9]) it was 1050 ng/mL. In addition, the figures for the concentration at 2 h in [1] (setting [8]) and in data set [1] (setting [9]) were 1540 ng/mL and 1370 ng/mL, respectively. The concentration at 4 h in [1] (setting [8]) was 1590 ng/mL; in data set [1] (setting [9]) it was 2490 ng/mL. In addition, the concentration at 8 h in data set [1] (setting [8]) stood at 3180 ng/mL; in data set [1] (setting [9]) it was 2370 ng/mL. In addition, the concentration at 16 h in [1] (setting [8]) stood at 1550 ng/mL; in data set [1] (setting [9]), 1830 ng/mL. For the same compound, the concentration at 60 min in data set [1] (minipig, plasma, subcutaneous, 114.2 mg/kg, minipigs, LDEE 114.2 mg/kg s.c. over 16 hours, read-out: circulating plasma LD concentration achieved within 60 minutes of initiation of infusion) was greater than 400 ng/mL. In addition, the “circulating plasma LD concentration continuously maintained for at least 8 hours” value in [1] (minipigs, LDEE 114.2 mg/kg s.c. over 16 hours, lower bound) is “greater than 1,600 ng/mL”; in [1] (minipigs, LDEE 114.2 mg/kg s.c. over 16 hours, upper bound), “less than 5,000 ng/mL”. For the same compound, in data set [1] (setting [10]), the “LD Concentration, Minipig #1” value stood at 9.0 ng/mL. The “LD Concentration, Minipig #2” value in data set [1] (setting [10]) is given as 31.0 ng/mL. In addition, in data set [2] (about 2.65 M LDEE.HCl, pH 5.1, after 7 days at 23±2° C.), the “LD concentration in solution (supersaturated, no precipitation until seeded)” value is given as “about 35 g per liter”. The solubility in [3] (pH 4.5, aqueous buffer, about pH 4.5, no LDEE.HCl) was roughly 34 mM (≈ 6.7 mg/mL); in data set [3] (pH 4.5, aqueous with cosolvent or surfactant or cyclodextrin, about pH 4.5, 1.3 M LDEE.HCl) it was roughly 51 mM (≈ 10.1 mg/mL); in data set [3] (pH 4.5, aqueous with cosolvent or surfactant or cyclodextrin, about pH 4.5, about 2.6 M LDEE.HCl), roughly 86 mM (≈ 17 mg/mL); in “physchem” it was no less than 5800 µg/mL. For the same compound, in data set [3] (near pH 4.5), the “solubility of LD in 2.7 M LDEE.HCl relative to absence of LDEE.HCl” value is “about three times more soluble”. Also, the “solubility of LD” value in data set [3] (near pH 4.5, 2.7 M LDEE.HCl, about 25±1° C.) is on record as “about 17 g per liter”. Besides, the solubility of levodopa result is recorded as “about 1.65 g per liter” in data set [4] (neutral pH) and “about 2.8 g per liter” in data set [4] (pH 5).
Turning to `CC(=O)O.CCOC(=O)[C@@H](N)Cc1ccc(O)c(O)c1` [LDEE acetate], the “initial rate of hydrolysis” value in data set [2] (about 2.4 M LDEE acetate, pH 4.7, about 23±2° C.) is reported as “about 4.0±0.4 % per day”. The “% of the LDEE hydrolyzed” value in [2] (about 2.4 M LDEE acetate, pH 4.7, about 23±2° C., 24 h) is on record as 4.5%. Moreover, the “% of the LDEE hydrolyzed to LD” value in [2] (about 2.4 M LDEE acetate, pH 4.7, about 23±2° C., 96 hours) was found to be 14.5%. Further, the “rate of hydrolysis relative to LDEE.HCl” value in data set [2] (about pH 4.5, about 23° C.) is listed as “about 3 times”. Further, the “precipitation of LD” value in data set [5] (about 1.2 M LDEE + LDEE acetate suspension, pH about 7.01, about 37° C., 3 hours) was “no heavy precipitation”; in [5] (about 1.2 M LDEE + LDEE acetate, pH about 7.01, 37° C., 16 hours), “extensive precipitation of LD”. Also, the appearance of solution entry in data set [5] (about 2.4 M LDEE acetate, pH 4.7, about 23±2° C., after 96 hours) was “clear, i.e., precipitate free”. In addition, the “concentration of clear solution” value in data set [6] was “about 2.4 M”.
As for `CCOC(=O)[C@@H](N)Cc1ccc(O)c(O)c1` [LDEE, levodopa ethyl ester], the concentration at 30 min in data set [1] (minipig, plasma, sc, 1142 mg, plasma, 30 minutes after start of 16 h s.c. infusion of 1,142 mg LDEE, read-out: LDEE Concentration, Minipig #1) was determined as 6.2 ng/mL. Moreover, the concentration at 30 min in [1] (minipig, plasma, sc, 1142 mg, plasma, 30 minutes after start of 16 h s.c. infusion of 1,142 mg LDEE, read-out: LDEE Concentration, Minipig #2) turned out to be 6.2 ng/mL. In [1] (setting [11]), the concentration at 1 h worked out at 6.4 ng/mL, the concentration at 2 h is 6.3 ng/mL, the concentration at 4 h is 6.8 ng/mL and the concentration at 8 h turned out to be 10 ng/mL. The concentration at 16 h in data set [1] (setting [11]) was 10 ng/mL. In data set [1] (setting [12]), the concentration at 1 h turned out to be 4.8 ng/mL, the concentration at 2 h is 6.3 ng/mL, the concentration at 4 h came out at 7.9 ng/mL and the concentration at 8 h came to 10.9 ng/mL. For the same compound, the concentration at 16 h in [1] (setting [12]) worked out at 11.5 ng/mL. In addition, in data set [1] (minipigs, LDEE formulation 114.2 mg/kg s.c. over 16 hours), the “circulating plasma LDEE concentration during infusion” value was no more than 15 ng/mL. Also, in data set [1] (setting [10]), the “LDEE Concentration, Minipig #1” value is on record as 3.6 ng/mL and the “LDEE Concentration, Minipig #2” value turned out to be 3.3 ng/mL. Also, the “% of the LDEE hydrolyzed daily” value in data set [2] (about 2.65 M LDEE.HCl, pH 5.1, 23±2° C.) is listed as “about 0.88%”. Further, in [2] (about 2.65 M LDEE.HCl, pH 5.1 citrate, 7 days at 23±2° C., nitrogen flushed), the “% of the LDEE hydrolyzed to LD” value is given as 6.2%. For the same compound, in data set [2] (near pH 7, about 37° C.), the “rate of hydrolysis relative to LDME” value is “about four times faster”. For the same compound, in [5] (2.6 M LDEE.HCl, pH 5.5 (trisodium citrate), stirring at ambient temperature), the “time to LD precipitation” value is given as “about 30 hours”. Further, the “precipitation of LD” value in data set [5] (about 0.25M LDEE in physiological saline, 16 hours at 37° C.) was “extensive precipitation of LD”. For the same compound, the “expected time to LD precipitation (operational life)” value in data set [7] was “about 4 days”. In the data set with juvenile minipigs (resolved over 24 hours), the “swelling at infusion sites at end of infusion” value is on record as “mild swelling in an area of about 1×2 cm”. In addition, the subsequent subcutaneous nodules entry in the data set with juvenile minipigs (resolved over about one week) is reported as “small subcutaneous nodules of about 1×1 cm”.

The record behind these values is patent publication US20140088192A1, “SUBCUTANEOUSLY INFUSIBLE LEVODOPA PRODRUG COMPOSITIONS AND METHODS OF INFUSION” (SynAgile Corporation, priority 2010, published 2014).
